Measurements as given in patent US12065436B2, “Cardiac sarcomere inhibitors” (Cytokinetics, Inc., priority 2018, dated 2024).
Where two headings read alike, the source gives them in different places.

Legend:
[1] = molecular target: bovine cardiac myofibrils (full-length cardiac myosin ATPase in the native sarcomere) (Bos taurus (Bovine), UniProt Q9BE39); experiment: Skinned bovine cardiac myofibril ATPase assay (PK/LDH-coupled); format: biochemical; conditions: Ca2+ activating to 75% of maximal rate; for CDMF75 IC15: concentration giving 15% inhibition; for IC50: read-out: CDMF75 IC50
Chain of bovine cardiac myofibrils (full-length cardiac myosin ATPase in the native sarcomere) (Q9BE39 whole entry): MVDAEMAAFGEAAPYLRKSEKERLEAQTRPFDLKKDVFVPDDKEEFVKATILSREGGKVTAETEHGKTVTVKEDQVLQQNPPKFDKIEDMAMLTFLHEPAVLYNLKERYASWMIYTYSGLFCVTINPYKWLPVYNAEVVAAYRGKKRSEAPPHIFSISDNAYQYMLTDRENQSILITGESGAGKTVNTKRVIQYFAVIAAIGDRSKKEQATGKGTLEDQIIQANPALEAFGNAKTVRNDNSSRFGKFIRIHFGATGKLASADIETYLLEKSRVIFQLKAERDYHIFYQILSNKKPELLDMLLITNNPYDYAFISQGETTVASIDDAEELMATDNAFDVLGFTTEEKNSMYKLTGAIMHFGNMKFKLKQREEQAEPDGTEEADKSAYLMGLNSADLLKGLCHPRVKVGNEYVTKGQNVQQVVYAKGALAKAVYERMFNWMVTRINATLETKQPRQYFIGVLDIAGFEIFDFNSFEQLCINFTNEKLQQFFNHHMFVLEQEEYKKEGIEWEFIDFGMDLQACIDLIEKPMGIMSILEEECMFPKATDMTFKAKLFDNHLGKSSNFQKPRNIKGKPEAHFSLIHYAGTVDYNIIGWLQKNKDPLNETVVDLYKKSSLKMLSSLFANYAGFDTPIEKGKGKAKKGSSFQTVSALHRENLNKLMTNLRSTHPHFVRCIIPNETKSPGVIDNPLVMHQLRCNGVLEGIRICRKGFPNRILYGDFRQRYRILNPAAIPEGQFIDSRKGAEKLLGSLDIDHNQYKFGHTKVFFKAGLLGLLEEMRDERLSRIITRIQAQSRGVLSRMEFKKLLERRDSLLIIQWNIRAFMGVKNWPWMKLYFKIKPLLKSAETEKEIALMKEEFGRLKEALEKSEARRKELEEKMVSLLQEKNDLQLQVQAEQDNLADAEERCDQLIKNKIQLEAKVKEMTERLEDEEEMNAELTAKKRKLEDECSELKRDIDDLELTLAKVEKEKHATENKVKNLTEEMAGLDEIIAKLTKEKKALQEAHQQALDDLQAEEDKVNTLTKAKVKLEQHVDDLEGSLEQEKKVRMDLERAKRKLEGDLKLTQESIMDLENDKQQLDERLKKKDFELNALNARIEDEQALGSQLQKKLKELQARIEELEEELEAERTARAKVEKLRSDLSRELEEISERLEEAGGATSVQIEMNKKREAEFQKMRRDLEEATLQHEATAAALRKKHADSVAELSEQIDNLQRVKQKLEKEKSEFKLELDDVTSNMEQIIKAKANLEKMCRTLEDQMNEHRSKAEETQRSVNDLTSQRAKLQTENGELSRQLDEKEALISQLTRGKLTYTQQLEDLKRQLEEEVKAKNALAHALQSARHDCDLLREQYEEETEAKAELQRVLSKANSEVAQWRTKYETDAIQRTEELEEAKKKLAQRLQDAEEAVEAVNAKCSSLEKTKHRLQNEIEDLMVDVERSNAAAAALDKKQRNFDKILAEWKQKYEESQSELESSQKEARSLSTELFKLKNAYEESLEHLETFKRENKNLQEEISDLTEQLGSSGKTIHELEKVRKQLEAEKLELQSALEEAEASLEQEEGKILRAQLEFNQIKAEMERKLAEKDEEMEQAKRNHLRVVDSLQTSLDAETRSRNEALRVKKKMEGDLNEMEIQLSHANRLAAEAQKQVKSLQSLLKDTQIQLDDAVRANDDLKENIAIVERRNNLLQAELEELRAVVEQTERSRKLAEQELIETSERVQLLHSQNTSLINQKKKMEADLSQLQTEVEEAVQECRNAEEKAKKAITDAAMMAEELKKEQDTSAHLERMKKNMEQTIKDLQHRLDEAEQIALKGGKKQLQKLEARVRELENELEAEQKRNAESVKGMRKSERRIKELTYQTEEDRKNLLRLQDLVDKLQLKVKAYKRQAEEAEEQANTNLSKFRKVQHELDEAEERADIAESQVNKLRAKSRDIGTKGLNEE
Chain of bovine cardiac myofibrils (full-length cardiac myosin ATPase in the native sarcomere) (P85100 whole entry partner): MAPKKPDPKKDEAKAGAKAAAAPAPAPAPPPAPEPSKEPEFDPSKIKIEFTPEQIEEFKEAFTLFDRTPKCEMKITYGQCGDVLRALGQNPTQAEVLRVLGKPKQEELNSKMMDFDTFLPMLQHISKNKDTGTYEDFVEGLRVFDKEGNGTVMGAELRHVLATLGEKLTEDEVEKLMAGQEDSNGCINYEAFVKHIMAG
Chain of bovine cardiac myofibrils (full-length cardiac myosin ATPase in the native sarcomere) (Q3SZE5 whole entry partner): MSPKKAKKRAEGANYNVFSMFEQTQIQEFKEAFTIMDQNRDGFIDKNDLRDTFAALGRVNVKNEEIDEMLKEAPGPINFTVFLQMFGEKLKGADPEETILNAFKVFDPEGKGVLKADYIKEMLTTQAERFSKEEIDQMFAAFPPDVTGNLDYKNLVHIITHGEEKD
Outline: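 Triton-skinned bovine left-ventricle myofibrils (1 mg/mL) in PM 12 buffer (12 mM PIPES, 2 mM MgCl2, pH 6.8) with 50 μM ATP, 0.6 mM EGTA and CaCl2 set for 50% or 75% activation. Steady-state ATPase inhibition followed by PK/LDH-coupled NADH oxidation at 340 nm.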

[2] = test system: rat cardiac contractility (left ventricle fractional shortening); experiment: Echocardiography of acute effect on rat cardiac contractility, oral gavage; format: in vivo, Sprague Dawley rats; conditions: for inhibition in vivo at 6 mg/kg / IC50 / inhibition in vivo at 8 mg/kg / inhibition in vivo at 4 mg/kg / inhibition in vivo at 10 mg/kg: Rattus norvegicus; for inhibition in vivo at 6 mg/kg / inhibition in vivo at 8 mg/kg / inhibition in vivo at 4 mg/kg / inhibition in vivo at 10 mg/kg: oral gavage; for IC50 / IC10: oral dosing, estimated; for IC50: plasma concentration at which fractional shortening is 50% of pre-dose baseline; for IC10: plasma concentration at which
Experimental: Assessment of in vivo cardiac function by echocardiography was performed in male Sprague Dawley rats under isoflurane (1-3%) anesthesia. 2-D M-mode images of the left ventricle were acquired in the parasternal long-axis view before, during, and after administration of compounds by continuous IV infusion or oral gavage. In vivo fractional shortening was determined by M-mode image analysis with the following calculation: ((End diastolic diameter−end systolic diameter)/end diastolic diameter×100). For continuous IV infusion experiments, three pre-dose baseline M-mode images were taken at 1 minute intervals prior to infusion of compound. Compounds were formulated in 50% Propylene Glycol (PG): 16% Captisol: 10% dimethylacetamide (DMA) and delivered via a jugular vein catheter at the rate of 1 mL/kg/h. During infusion, M-mode images were taken at 5 minute intervals. The infusion stopped when fractional shortening reached up to a 60% reduction from baseline. Blood samples were taken to determine the plasma concentration of the compounds. Data was reported as an estimated IC50 value, which is the concentration at which fractional shortening is 50% of the pre-dose baseline contractility.
For oral dosing studies, three pre-dose baseline M-Mode images were taken at 1 minute intervals prior to compound administration. Compounds were formulated in a 0.5% hydroxypropyl methylcellulose 2910 (HPMC 2910): 0.1% Tween 80 suspension and delivered as a single dose (5 mL/kg) by oral gavage. Rats were lightly anesthetized for M-Mode echocardiography measurements at select time points over a 24 hour period. Different dose levels were evaluated for each compound. The compound effect on cardiac fractional shortening at the highest dose evaluated is presented in Table D as a percent reduction of baseline fractional shortening (=100%).
Concurrent with echocardiography measurements, blood samples were taken to determine the corresponding compound plasma concentration.

[3] = 1 h, 1-2 h post dose, read-out: FS (% reduction from baseline) at 1-2 h post dose (Mean ± S.D.)
[4] = 4 h post dose, read-out: FS (% reduction from baseline) at 4 h post dose (Mean ± S.D.)

CDMF75 IC15 [1] [µM]	IC50 [1] [µM]	IC50 [2] [µM]	Structure (SMILES)	IC10 [2] [µM]	also measured
0.6	2.2	2.4	O=C(N[C@@H]1CCc2cc(-c3noc(C4CC4)n3)ccc21)c1cn[nH]c1 [Compound 489, (R)-N-(5-(5-cyclopropyl-1,2,4-oxadiazol-3-yl)-2,3-dihydro-1H-inden-1-yl)-1H-pyrazole-4-carboxamide]	0.7	inhibition in vivo at 6 mg/kg [2, 3]: 65 ± 6%; inhibition in vivo at 6 mg/kg [2, 4]: 35 ± 6%
0.3	1.1	37	CCc1nc(-c2ccc3c(c2)CC[C@H]3NC(=O)c2cc(C)no2)no1 [Compound 565, (R)-N-(5-(5-ethyl-1,2,4-oxadiazol-3-yl)-2,3-dihydro-1H-inden-1-yl)-3-methylisoxazole-5-carboxamide]	11	inhibition in vivo at 8 mg/kg [2, 3]: 55 ± 13%; inhibition in vivo at 8 mg/kg [2, 4]: 43 ± 13%
0.4	1.3	0.7	CCc1nc(-c2ccc3c(c2)CC[C@H]3NC(=O)c2ccnc(CO)c2)no1 [Compound 577, (R)-N-(5-(5-ethyl-1,2,4-oxadiazol-3-yl)-2,3-dihydro-1H-inden-1-yl)-2-(hydroxymethyl)isonicotinamide]	0.1	inhibition in vivo at 4 mg/kg [2, 3]: 67 ± 6%; inhibition in vivo at 4 mg/kg [2, 4]: 34 ± 11%
0.7	2.3	1.6	CCc1nc(-c2ccc3c(c2)CC[C@H]3NC(=O)c2ccc(=O)n(C)c2)no1 [Compound 589, (R)-N-(5-(5-ethyl-1,2,4-oxadiazol-3-yl)-2,3-dihydro-1H-inden-1-yl)-1-methyl-6-oxo-1,6-dihydropyridine-3-carboxamide]	0.3	inhibition in vivo at 6 mg/kg [2, 3]: 73 ± 12%; inhibition in vivo at 6 mg/kg [2, 4]: 46 ± 3%
0.3	1.2	1.2	CCc1nc(-c2ccc3c(c2)CC[C@H]3NC(=O)c2nnc(C)o2)no1 [Compound 617, (R)-N-(5-(5-ethyl-1,2,4-oxadiazol-3-yl)-2,3-dihydro-1H-inden-1-yl)-5-methyl-1,3,4-oxadiazole-2-carboxamide]	0.3	inhibition in vivo at 6 mg/kg [2, 3]: 64 ± 4%; inhibition in vivo at 6 mg/kg [2, 4]: 37 ± 7%
0.5	1.9	3.3	O=C(N[C@@H]1CCc2cc(-c3noc(C(F)F)n3)ccc21)c1ccnc(CO)c1 [Compound 664, (R)-N-(5-(5-(difluoromethyl)-1,2,4-oxadiazol-3-yl)-2,3-dihydro-1H-inden-1-yl)-2-(hydroxymethyl)isonicotinamide]	1.2	inhibition in vivo at 6 mg/kg [2, 3]: 65 ± 4%; inhibition in vivo at 6 mg/kg [2, 4]: 38 ± 5%
0.9	3.7	8.3	COCc1nc(-c2ccc3c(c2)CC[C@H]3NC(=O)c2nnc(C)o2)no1 [Compound 697, (R)-N-(5-(5-(methoxymethyl)-1,2,4-oxadiazol-3-yl)-2,3-dihydro-1H-inden-1-yl)-5-methyl-1,3,4-oxadiazole-2-carboxamide]	3.3	inhibition in vivo at 10 mg/kg [2, 3]: 70 ± 2%; inhibition in vivo at 10 mg/kg [2, 4]: 45 ± 3%
0.6	2.3	4.3	O=C(N[C@@H]1COc2cc(-c3noc(C(F)F)n3)ccc21)c1ccnc(CO)c1 [Compound 709, (S)-N-(6-(5-(difluoromethyl)-1,2,4-oxadiazol-3-yl)-2,3-dihydrobenzofuran-3-yl)-2-(hydroxymethyl)isonicotinamide]	1.5	inhibition in vivo at 8 mg/kg [2, 3]: 68 ± 2%; inhibition in vivo at 8 mg/kg [2, 4]: 31 ± 3%
0.8	4.1	–	Cc1nc(-c2ccc3c(c2)OC[C@H]3NC(=O)c2cccc([C@H](C)O)c2)no1 [Compound 734, 3-((S)-1-hydroxyethyl)-N-((S)-6-(5-methyl-1,2,4-oxadiazol-3-yl)-2,3-dihydrobenzofuran-3-yl)benzamide]	–	–
1.6	8.5	–	Cc1nc(-c2ccc3c(c2)OC[C@H]3NC(=O)c2cccc([C@@H](C)O)c2)no1 [Compound 735, 3-((R)-1-hydroxyethyl)-N-((S)-6-(5-methyl-1,2,4-oxadiazol-3-yl)-2,3-dihydrobenzofuran-3-yl)benzamide]	–	–
1.2	5.4	–	COCc1nc(-c2ccc3c(c2)OC[C@H]3NC(=O)c2cccc([C@H](C)O)c2)no1 [Compound 736, 3-((S)-1-hydroxyethyl)-N-((S)-6-(5-(methoxymethyl)-1,2,4-oxadiazol-3-yl)-2,3-dihydrobenzofuran-3-yl)benzamide]	–	–
2.4	14.9	–	COCc1nc(-c2ccc3c(c2)OC[C@H]3NC(=O)c2cccc([C@@H](C)O)c2)no1 [Compound 737, 3-((R)-1-hydroxyethyl)-N-((S)-6-(5-(methoxymethyl)-1,2,4-oxadiazol-3-yl)-2,3-dihydrobenzofuran-3-yl)benzamide]	–	–
2.1	9.5	–	Cc1nc(-c2ccc3c(c2)OC[C@H]3NC(=O)c2ccnc(C(C)O)c2)no1 (stereo partly drawn) [Compound 738, 2-(1-hydroxyethyl)-N-((S)-6-(5-methyl-1,2,4-oxadiazol-3-yl)-2,3-dihydrobenzofuran-3-yl)isonicotinamide]	–	–
5.4	24.2	–	CCc1nc(-c2ccc3c(c2)OC[C@H]3NC(=O)N2CC[C@H](O)C2)no1 [Compound 739, (S)-N-((S)-6-(5-ethyl-1,2,4-oxadiazol-3-yl)-2,3-dihydrobenzofuran-3-yl)-3-hydroxypyrrolidine-1-carboxamide]	–	–
1.9	6.9	–	CCc1nc(-c2ccc3c(c2)OC[C@H]3NC(=O)N2CC[C@@H](O)C2)no1 [Compound 740, (R)-N-((S)-6-(5-ethyl-1,2,4-oxadiazol-3-yl)-2,3-dihydrobenzofuran-3-yl)-3-hydroxypyrrolidine-1-carboxamide]	–	–
1.9	10.5	–	CCc1nc(-c2ccc3c(c2)OC[C@H]3NC(=O)N2CC(O)C2)no1 [Compound 741, (S)-N-(6-(5-ethyl-1,2,4-oxadiazol-3-yl)-2,3-dihydrobenzofuran-3-yl)-3-hydroxyazetidine-1-carboxamide]	–	–
3.4	16.6	–	CCc1nc(-c2ccc3c(c2)OC[C@H]3NC(=O)N2CC[C@H](F)C2)no1 [Compound 742, (S)-N-((S)-6-(5-ethyl-1,2,4-oxadiazol-3-yl)-2,3-dihydrobenzofuran-3-yl)-3-fluoropyrrolidine-1-carboxamide]	–	–
7.4	36.7	–	CCc1nc(-c2ccc3c(c2)OC[C@H]3NC(=O)N2CC[C@@H](F)C2)no1 [Compound 743, (R)-N-((S)-6-(5-ethyl-1,2,4-oxadiazol-3-yl)-2,3-dihydrobenzofuran-3-yl)-3-fluoropyrrolidine-1-carboxamide]	–	–
0.8	3.8	–	CCc1nc(-c2ccc3c(c2)OC[C@H]3NC(=O)NCCO)no1 [Compound 745, (S)-1-(6-(5-ethyl-1,2,4-oxadiazol-3-yl)-2,3-dihydrobenzofuran-3-yl)-3-(2-hydroxyethyl)urea]	–	–
4.6	21.3	–	CCc1nc(-c2ccc3c(c2)OC[C@H]3NC(=O)N(C)CCO)no1 [Compound 746, (S)-3-(6-(5-ethyl-1,2,4-oxadiazol-3-yl)-2,3-dihydrobenzofuran-3-yl)-1-(2-hydroxyethyl)-1-methylurea]	–	–

Structure (SMILES)	CDMF75 IC15 [1] [µM]	IC50 [1] [µM]	IC50 [2] [µM]	IC10 [2] [µM]	also measured
CCc1nc(-c2ccc3c(c2)OC[C@H]3NC(=O)OCCO)no1 [Compound 744, 2-hydroxyethyl N-[(3S)-6-(5-ethyl-1,2,4-oxadiazol-3-yl)-2,3-dihydro-1-benzofuran-3-yl]carbamate]	0.3	1.3	–	–	–
